Measured values reported in PMC7582876, “Antiproliferative Properties of a Few Auranofin-Related Gold(I) and Silver(I) Complexes in Leukemia Cells and their Interferences with the Ubiquitin Proteasome System” (Molecules, 2020).

Tests used:
[1] = target: T1, peptidyl-glutamyl peptide-hydrolyzing (PGPH or caspase-like C-L) activity of human 20S proteasome (Homo sapiens, UniProt P28072); assay: Inhibition of peptidyl-glutamyl peptide-hydrolyzing activity of 20S proteasome (Cbz-Leu-Leu-Glu-AMC); type: biochemical; details: for PGPH (C-L) inhibition at 10 µM: over 10 min; for IC50: 10 min, no pre-incubation, 30 °C
T1 construct: 20S proteasome, isolated and purified from human erythrocytes; purchased Biomol GmbH, Hamburg, Germany; host or cells: human erythrocytes (native complex)
Procedure: (§1) 20S proteasome, isolated and purified from human erythrocytes, was obtained from a commercial source (Biomol GmbH, Hamburg, Germany), as well as the peptidic substrates (Bachem, Bubendorf, Switzerland) Suc-Leu-Leu-Val-Tyr-AMC, Boc-Leu-Arg-Arg-AMC and Cbz-Leu-Leu-Glu-AMC for ChT-L, T-L and PGPH (C-L) activity of the enzyme, respectively. The three distinct proteolytic activities of the 20S proteasome were measured by monitoring the hydrolysis of the substrates and detecting the fluorescence of the common product released, i.e., 7-amino-4-methyl coumarin (7-AMC), by means of an Infinite 200 PRO microplate reader (Tecan, Männedorf, Switzerland) at 30 °C with a 380-nm excitation filter and a 460-nm emission filter. All gold and silver complexes were tested against the three proteolytic activities of the 20S proteasome and against Cat-B, Cat-L and bovine pancreatic α-chymotrypsin at 10 µM concentrations over a period of 10 min using an equivalent amount of DMSO as a negative control. […] The IC50 values were calculated with the program GraFit® using the two-parameter equation. More detailed experimental protocols for the assays against each proteolytic activity of the 20S proteasome, as well as against bovine pancreatic α-chymotrypsin, are already reported elsewhere (see also Supplementary Materials). Cat-B and Cat-L were purchased from Calbiochem, Darmstadt, Germany, and the related assays were performed as previously described. The employed fluorogenic substrate for both cysteine proteases was Cbz-Phe-Arg-AMC (80 µM for Cat-B; 5 µM for Cat-L). […]
Inhibition assay for the Post-Glutamyl Peptide Hydrolyzing Activity of the 20S
with the test compound present at 10 µM (screening assay) or variable concentrations. The
reaction buffer consisted of 50 mM Tris buffer pH 7.5 containing 25 mM KCl, 10 mM NaCl,
1 mM MgCl2, 0.03% SDS, 5% DMSO. Product release from substrate hydrolysis ([…])
was monitored continuously over a period of 10 min.

[2] = target: T2, chymotrypsin-like (ChT-L) activity of human 20S proteasome (Homo sapiens, UniProt P28074); assay: Inhibition of chymotrypsin-like activity of 20S proteasome (Suc-Leu-Leu-Val-Tyr-AMC); type: biochemical; details: for ChT-L inhibition at 10 µM: over 10 min; for IC50: 10 min, no pre-incubation, 30 °C
T2 construct: 20S proteasome, isolated and purified from human erythrocytes; purchased Biomol GmbH, Hamburg, Germany; host or cells: human erythrocytes (native complex)
Procedure: as §1
Inhibition assay for the Chymotryptic Activity of the 20S Proteasome
Human 20S proteasome was incubated at 30 °C at a final concentration of 0.004 mg∙mL−1
with test compound present at 10 µM (screening assay) or at variable concentrations
(continuous assay). The reaction buffer consisted of 50 mM Tris pH 7.5, 10 mM NaCl, 25
mM KCl, 1 mM MgCl2, 0.03% SDS and 5% DMSO. Product release from substrate
hydrolysis ([…]) was monitored continuously over a period of 10 min. […]

[3] = target: T3, bovine pancreatic α-chymotrypsin (Bos taurus, UniProt P00766); assay: Bovine pancreatic α-chymotrypsin inhibition screening; type: biochemical; details: over 10 min
T3 construct: from tissue; host or cells: bovine pancreas (from the enzyme's name only)
Procedure: 20S proteasome, isolated and purified from human erythrocytes, was obtained from a commercial source (Biomol GmbH, Hamburg, Germany), as well as the peptidic substrates (Bachem, Bubendorf, Switzerland) Suc-Leu-Leu-Val-Tyr-AMC, Boc-Leu-Arg-Arg-AMC and Cbz-Leu-Leu-Glu-AMC for ChT-L, T-L and PGPH (C-L) activity of the enzyme, respectively. The three distinct proteolytic activities of the 20S proteasome were measured by monitoring the hydrolysis of the substrates and detecting the fluorescence of the common product released, i.e., 7-amino-4-methyl coumarin (7-AMC), by means of an Infinite 200 PRO microplate reader (Tecan, Männedorf, Switzerland) at 30 °C with a 380-nm excitation filter and a 460-nm emission filter. All gold and silver complexes were tested against the three proteolytic activities of the 20S proteasome and against Cat-B, Cat-L and bovine pancreatic α-chymotrypsin at 10 µM concentrations over a period of 10 min using an equivalent amount of DMSO as a negative control. […]. The IC50 values were calculated with the program GraFit® using the two-parameter equation. More detailed experimental protocols for the assays against each proteolytic activity of the 20S proteasome, as well as against bovine pancreatic α-chymotrypsin, are already reported elsewhere (see also Supplementary Materials). Cat-B and Cat-L were purchased from Calbiochem, Darmstadt, Germany, and the related assays were performed as previously described. The employed fluorogenic substrate for both cysteine proteases was Cbz-Phe-Arg-AMC (80 µM for Cat-B; 5 µM for Cat-L).
Assay for Bovine Pancreatic α-Chymotrypsin Inhibition
The enzyme ([…]) was incubated at 20 °C with the test compound present at 10
µM (screening assay). The reaction buffer consisted of 50 mM Tris buffer pH 8.0
containing 100 mM NaCl, 5 mM EDTA and 7.5% DMSO. Product release from substrate
hydrolysis ([…] final concentration, Suc-Leu-Leu-Val-Tyr-AMC from Bachem) was
determined over a period of 10 min. […]

[4] = target: T4, human cathepsin-B (Cat-B) (Homo sapiens, UniProt P07858); assay: Cathepsin-B inhibition screening; type: biochemical; details: over 10 min
T4 construct: purchased Calbiochem, Darmstadt, Germany; host or cells: recombinant
Procedure: The IC50 values were calculated with the program GraFit® using the two-parameter equation. More detailed experimental protocols for the assays against each proteolytic activity of the 20S proteasome, as well as against bovine pancreatic α-chymotrypsin, are already reported elsewhere (see also Supplementary Materials). Cat-B and Cat-L were purchased from Calbiochem, Darmstadt, Germany, and the related assays were performed as previously described. […] Assay for Bovine Pancreatic α-Chymotrypsin Inhibition The enzyme ([…]) was incubated at 20 °C with the test compound present at 10 μM (screening assay). The reaction buffer consisted of 50 mM Tris buffer pH 8.0 containing 100 mM NaCl, 5 mM EDTA and 7.5% DMSO. Product release from substrate hydrolysis ([…] final concentration, Suc-[…] from Bachem) was determined over a period of 10 min. Assay for Cathepsin-B and Cathepsin-L Inhibition Assays were performed at 25 °C in a 20 mM Tris-HCl buffer, pH 6.0, containing 5 mM […] Substrate (Cbz-Phe-Arg-AMC for both enzymes) and inhibitor stock solutions were prepared in DMSO (10% final concentration) and were diluted with assay buffer; enzymes were held in buffer. The final substrate concentration for inhibition assays was between 10.0 and 81.0 […] for CB (recombinant, human liver). […] μM and 140 μM. Product release from substrate hydrolysis was determined over a period of 10 min.

[5] = test system: human embryonic kidney cells (HEK293); design: method as in PMID 29057040; details: previously assessed, ref [18], read-out: IC50, cell viability of healthy cells (HEK293); cited from earlier work
[6] = test system: human fibroblast cells (HDF); design: method as in PMID 29057040; details: previously assessed, ref [18], read-out: IC50, cell viability of healthy cells (HDF); cited from earlier work

CC[PH](CC)(CC)[Ag][Br] [Ag(PEt3)Br]
PGPH (C-L) inhibition at 10 µM [1]: n.i.
ChT-L inhibition at 10 µM [2]: 22 ± 0.4%
Bovine Pancreatic α-Chymotrypsin Inhibition (%) at 10 µM [3]: n.i.
Cat-B Inhibition (%) at 10 µM [4]: n.i.

CC[PH](CC)(CC)[Ag][Cl] [Ag(PEt3)Cl]
PGPH (C-L) inhibition at 10 µM [1]: n.i.
ChT-L inhibition at 10 µM [2]: 28 ± 0.5%
Bovine Pancreatic α-Chymotrypsin Inhibition (%) at 10 µM [3]: n.i.
Cat-B Inhibition (%) at 10 µM [4]: n.i.

CC[PH](CC)(CC)[Ag][I] [Ag(PEt3)I]
PGPH (C-L) inhibition at 10 µM [1]: n.i.
ChT-L inhibition at 10 µM [2]: 25 ± 0.2%
Bovine Pancreatic α-Chymotrypsin Inhibition (%) at 10 µM [3]: n.i.
Cat-B Inhibition (%) at 10 µM [4]: n.i.

CCP(CC)CC.[Br][Au] [Au(PEt3)Br]
IC50 [1]: > 10 µM
IC50 [2]: 1.4 ± 0.8 µM
Bovine Pancreatic α-Chymotrypsin Inhibition (%) at 10 µM [3]: n.i.
Cat-B Inhibition (%) at 10 µM [4]: 31 ± 2.2%

CCP(CC)CC.[Au+].[Cl-] [Au(PEt3)Cl]
IC50 [1]: > 10 µM
IC50 [2]: 2.6 ± 0.3 µM
IC50 [5]: > 5 µM
Bovine Pancreatic α-Chymotrypsin Inhibition (%) at 10 µM [3]: n.i.
Cat-B Inhibition (%) at 10 µM [4]: 29 ± 0.2%
IC50 [6]: > 5 µM

CC[P](CC)(CC)[Au][I] [Au(PEt3)I]
IC50 [1]: > 10 µM
IC50 [2]: 6.1 ± 0.4 µM
IC50 [5]: > 5 µM
Bovine Pancreatic α-Chymotrypsin Inhibition (%) at 10 µM [3]: n.i.
Cat-B Inhibition (%) at 10 µM [4]: 29 ± 1.7%
IC50 [6]: > 5 µM

CCP(CC)CC.CCP(CC)CC.O=[N+]([O-])[O-].[Ag+] [[Ag(PEt3)2]NO3]
PGPH (C-L) inhibition at 10 µM [1]: n.i.
ChT-L inhibition at 10 µM [2]: 38 ± 5.0%
Bovine Pancreatic α-Chymotrypsin Inhibition (%) at 10 µM [3]: n.i.
Cat-B Inhibition (%) at 10 µM [4]: n.i.

CC(=O)OC[C@H]1O[C@@H]([S-])[C@H](OC(C)=O)[C@@H](OC(C)=O)[C@@H]1OC(C)=O.CCP(CC)CC.[Au+] [auranofin, Auranofin]
PGPH (C-L) inhibition at 10 µM [1]: n.i.
ChT-L inhibition at 10 µM [2]: n.i. ^a
IC50 [5]: > 5 µM
Bovine Pancreatic α-Chymotrypsin Inhibition (%) at 10 µM [3]: n.i. ^a
Cat-B Inhibition (%) at 10 µM [4]: n.i.
IC50 [6]: > 5 µM
